Laboratory results reported in patent US20090060861A1, “Stabilized Polypeptide Formulations” (NOVO Nordisk A/S, priority 2005, published 2009).
Like-named read-outs stand apart in the source and are kept apart here.

Experiments:
[1] = biological target: T1, insulin aspart (Asp^B28 human insulin) (Homo sapiens, UniProt P01308, P52D); experiment: Chemical stability of the polypeptide, degradation products formed during storage; settings: insulin aspart compositions, 1-100 mM buffer; 3 months storage at 5° C. or 37° C.; data not shown
human insulin = human insulin (Homo sapiens, UniProt P01308)
[2] = biological target: T1, insulin aspart (Asp^B28 human insulin); settings: pH 7.4
Protocol: Compositions comprising the buffer components covered by the present invention were prepared according to the above-mentioned and a reference composition containing 7 mM sodium phosphate as buffer component was prepared in parallel.

[3] = biological target: T1, insulin aspart (Asp^B28 human insulin)
[4] = human insulin, 6.7 mM buffer, n=12
[5] = insulin aspart 600 nmol/mL, 1-100 mM buffer, 37° C., shake 1200 rpm, n=12

T1 sequence (P01308 25-54 P52D): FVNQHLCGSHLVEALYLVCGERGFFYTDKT
T1 sequence (P01308 90-110): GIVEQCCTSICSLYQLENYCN
Chain of human insulin (P01308 25-54 limits assumed): as the sequence (P01308 25-54 P52D) above, with D28P counted along it

Row | Structure (SMILES) | impact on chemical stability of the polypeptide (amount of degradation products formed) [1] | polypeptide stability (physical stability, ThT lag-time) compared to compositions comprising phosphate buffer (human insulin; [4]) | polypeptide stability (physical stability, ThT lag-time) compared to compositions comprising phosphate buffer (7 mM) [2, 5] | impact on chemical stability of the polypeptide (amount of degradation products formed) [3] | polypeptide stability (physical stability, ThT lag-time) compared to compositions comprising phosphate buffer (human insulin) | polypeptide stability (physical stability, ThT lag-time) compared to compositions comprising phosphate buffer (7 mM) [2]
1 | CC(N)(CO)CO [AMPD, 2-amino-2-methyl-1,3-propanediol] | No significant impact | increased | increased | – | – | –
2 | CC[N+](CC)(CC)CC.[Cl-] [T.E.A. chloride, tetraethylammonium chloride] | – | increased | increased | No significant impact | – | –
3 | CCC(CC)(C(=O)O)C(=O)O [diethylmalonic acid, diethylpropanedioic acid] | No significant impact | increased | increased | – | – | –
4 | Cl.NCC(N)=O [glycinamid hydrochloride] | No significant impact | – | – | – | increased | increased
5 | O=C(O)c1ccc(C(=O)O)c(C(=O)O)c1 [trimellitic acid, 1,2,4-benzenetricarboxylic acid] | No significant impact | increased | increased | – | – | –
